Consider eleven compounds from paper PMC6669961, “Design and Optimization of Thioglycosyl–naphthalimides as Efficient Inhibitors Against Human O-GlcNAcase” (Frontiers in Chemistry, 2019).

The target of assay [1] is T1, human β-N-acetylhexosaminidase B (HsHexB) (Homo sapiens, UniProt P07686).
T1 construct: made in house; host or cells: Pichia pastoris
T1 sequence (P07686 122-556): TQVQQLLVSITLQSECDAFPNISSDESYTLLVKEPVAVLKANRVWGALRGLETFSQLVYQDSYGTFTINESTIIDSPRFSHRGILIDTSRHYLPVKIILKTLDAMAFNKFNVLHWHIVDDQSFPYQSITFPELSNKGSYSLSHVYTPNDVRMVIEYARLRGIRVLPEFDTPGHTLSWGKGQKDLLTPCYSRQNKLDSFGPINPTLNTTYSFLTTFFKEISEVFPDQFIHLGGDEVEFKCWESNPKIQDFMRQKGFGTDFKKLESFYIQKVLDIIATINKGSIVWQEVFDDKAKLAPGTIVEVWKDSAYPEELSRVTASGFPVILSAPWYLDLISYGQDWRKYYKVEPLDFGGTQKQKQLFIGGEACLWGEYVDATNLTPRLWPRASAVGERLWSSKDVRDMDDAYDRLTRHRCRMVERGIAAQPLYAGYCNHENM
The experiment in a line: Enzyme inhibitory activity test against HsHexB (4-MU-GlcNAc substrate, end-point fluorescence; Dixon plots for Ki). It counts as biochemical. The settings on record: pH 4.5; for inhibition at 100 µM: 100 μM inhibitor, 40 μM 4-MU-GlcNAc, 30°C, 30 min, read-out: Inhibition rate at 100 μM (%) HsHexB; for Ki: Dixon plots, 4-MU-GlcNAc 40, 20, 10 μM. Here is the method: (§1) Human O-GlcNAcase (hOGA) was expressed in Escherichia coli BL21(DE3) and purified according to previous methods (Kong et al., [2016]). Human β-N-acetylhexosaminidase B (HsHexB) was overexpressed in Pichia pastoris and then purified as described previously (Shen et al., [2018a]).
(§2) All target compounds were evaluated for their inhibitory activities against hOGA and HsHexB in end-point experiments. 4-Methylumbelliferyl N-acetyl-β-D-glucosaminide (4-MU-GlcNAc) was used as substrate. In a final assay volume of 100 μL, inhibitor and substrate (40 μM) were mixed with Britton-Robinson buffer (hOGA, pH 6.5; HsHexB, pH 4.5) and enzyme; then, the assay components were incubated at 30°C for 30 min. Subsequently, the enzymatic reaction was terminated by the addition of 100 μL 0.5 M Na2CO3 solution. The fluorescence of the liberated 4-methylumbelliferone (Mu) was quantified at an excitation of 366 nm and emission of 445 nm on a Varioskan Flash microplate reader (Thermo Fisher Scientific, USA). To determine the inhibition constant (Ki), Dixon plots were performed by changing the concentration of the 4-MU-GlcNAc (40, 20, and 10 μM).

Assay [2] addresses T2, human O-GlcNAcase (hOGA) (Homo sapiens, UniProt O60502).
T2 construct: made in house; host or cells: Escherichia coli BL21(DE3)
T2 sequence (O60502 1-916): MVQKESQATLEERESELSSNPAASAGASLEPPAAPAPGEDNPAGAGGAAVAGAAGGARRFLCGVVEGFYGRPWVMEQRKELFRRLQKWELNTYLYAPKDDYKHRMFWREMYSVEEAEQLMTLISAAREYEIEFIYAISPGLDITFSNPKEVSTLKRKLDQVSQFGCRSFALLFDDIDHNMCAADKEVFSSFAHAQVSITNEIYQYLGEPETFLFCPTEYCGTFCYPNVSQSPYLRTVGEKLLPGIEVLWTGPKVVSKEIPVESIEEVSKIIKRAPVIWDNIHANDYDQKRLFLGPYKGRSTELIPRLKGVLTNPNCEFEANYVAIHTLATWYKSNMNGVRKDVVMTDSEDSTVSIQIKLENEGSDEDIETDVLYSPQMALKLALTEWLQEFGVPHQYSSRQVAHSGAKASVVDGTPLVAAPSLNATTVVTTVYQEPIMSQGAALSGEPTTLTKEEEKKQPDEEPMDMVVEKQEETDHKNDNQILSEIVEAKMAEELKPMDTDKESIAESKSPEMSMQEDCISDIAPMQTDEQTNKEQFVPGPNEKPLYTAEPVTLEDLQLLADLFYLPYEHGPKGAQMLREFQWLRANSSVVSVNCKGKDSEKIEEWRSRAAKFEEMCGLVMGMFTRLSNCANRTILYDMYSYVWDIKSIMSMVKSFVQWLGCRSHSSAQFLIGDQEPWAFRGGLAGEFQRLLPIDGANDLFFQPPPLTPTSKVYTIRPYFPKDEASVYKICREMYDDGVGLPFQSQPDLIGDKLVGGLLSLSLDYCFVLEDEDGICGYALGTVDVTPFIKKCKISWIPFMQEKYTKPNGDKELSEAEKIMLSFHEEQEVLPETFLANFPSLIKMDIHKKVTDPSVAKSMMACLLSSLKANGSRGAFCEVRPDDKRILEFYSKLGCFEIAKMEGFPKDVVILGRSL
The experiment in a line: Enzyme inhibitory activity test against hOGA (4-MU-GlcNAc substrate, end-point fluorescence; Dixon plots for Ki). It counts as biochemical. As to conditions: for inhibition at 100 µM: 100 μM inhibitor, 40 μM 4-MU-GlcNAc, 30°C, 30 min, read-out: Inhibition rate at 100 μM (%) hOGA; for inhibition at 100 µM / Ki: pH 6.5; for Ki: Dixon plots, 4-MU-GlcNAc 40, 20, 10 μM; for inhibitory mechanism toward hOGA: kinetic studies via Dixon plots. On the procedure: as §1, §2

Turning to `CC(=O)N[C@@H]1[C@@H](O)[C@H](O)[C@@H](CO)O[C@H]1SCC(=O)NCCCN1C(=O)c2cccc3c(Br)ccc(c23)C1=O` [Compound 10a], in assay [1], the inhibition (as a rule, the percentage by which the read-out fell short of the control) at 100 µM is 36.5 ± 0.8%; the Ki (commonly the dissociation constant of the complex between target and ligand, obtained from inhibition or displacement) is over 100 µM. In assay [2], the inhibition at 100 µM worked out at 98.7 ± 0.3%; the affinity, expressed as Ki, was 0.61 ± 0.02 µM; the “inhibitory mechanism toward hOGA” value is “competitive inhibitors”. The “increase in potency against hOGA” value in assay [2] (compared to lead compound 2 (Ki)) is listed as about 6 fold.

As to `COc1ccc2c3c(cccc13)C(=O)N(CCCNC(=O)CS[C@@H]1O[C@H](CO)[C@@H](O)[C@H](O)[C@H]1NC(C)=O)C2=O` [Compound 10b], in assay [1], the inhibition at 100 µM was found to be 49.2 ± 1.4% and the Ki is over 100 µM. For the same compound, in assay [2], the inhibition at 100 µM was found to be 90.6 ± 0.5% and affinity was put at a Ki of 4.43 ± 0.21 µM.

For `CC(=O)N[C@@H]1[C@@H](O)[C@H](O)[C@@H](CO)O[C@H]1SCC(=O)NCCCN1C(=O)c2cccc3c(N(C)C)ccc(c23)C1=O` [Compound 10c], the figures for the inhibition at 100 µM in assay [1] and in assay [2] were 36.9 ± 0.2% and 84.4 ± 1.7%, respectively. Further, the Ki in assay [1] is over 100 µM; in assay [2], 9.72 ± 0.49 µM.

In the case of `CC(=O)N[C@@H]1[C@@H](O)[C@H](O)[C@@H](CO)O[C@H]1SCC(=O)NCCCN1C(=O)c2cccc3c(N4CCCCC4)ccc(c23)C1=O` [Compound 10d], in assay [1], the inhibition at 100 µM stood at 32.8 ± 2.7% and the Ki is over 100 µM. In assay [2], the inhibition at 100 µM was found to be 93.1 ± 0.2%; the affinity, expressed as Ki, was 1.42 ± 0.02 µM; the “inhibitory mechanism toward hOGA” value is “competitive inhibitors”. Also, in assay [2] (10d compared to 10a (Ki)), the “decrease in inhibitory potency against hOGA” value is given as 2.3 fold.

`O=C(CS[C@@H]1O[C@H](CO)[C@@H](O)[C@H](O)[C@H]1NC(=O)c1ccccc1)NCCCN1C(=O)c2cccc3c(N4CCCCC4)ccc(c23)C1=O` [Compound 16a]: the inhibition at 100 µM in assay [1] is 12.2 ± 0.2%; in assay [2], 22 ± 0.5%. Further, the Ki in assay [1] and in assay [2] was over 100 µM in each case.

Take `O=C(CS[C@@H]1O[C@H](CO)[C@@H](O)[C@H](O)[C@H]1NC(=O)c1ccc(F)cc1)NCCCN1C(=O)c2cccc3c(N4CCCCC4)ccc(c23)C1=O` [Compound 16b]: the results for the inhibition at 100 µM in assay [1] and in assay [2] were 15.8 ± 0.4% and 50.9 ± 0.8%, respectively. The inhibitory constant (Ki) in assay [1] and in assay [2] was over 100 µM each time.

`O=C(CS[C@@H]1O[C@H](CO)[C@@H](O)[C@H](O)[C@H]1NC(=O)OCc1ccccc1)NCCCN1C(=O)c2cccc3c(N4CCCCC4)ccc(c23)C1=O` [Compound 16c]: in assay [1], the inhibition at 100 µM was determined as 2 ± 1.1% and the Ki is over 100 µM. In assay [2], the inhibition at 100 µM amounted to 9.7 ± 0.7% and the inhibition constant Ki was over 100 µM.

For `CCC(=O)N[C@@H]1[C@@H](O)[C@H](O)[C@@H](CO)O[C@H]1SCC(=O)NCCCN1C(=O)c2cccc3c(N4CCCCC4)ccc(c23)C1=O` [Compound 16d], in assay [1], the inhibition at 100 µM was 28.7 ± 2% and the Ki is over 100 µM. In addition, in assay [2], the inhibition at 100 µM turned out to be 88 ± 1.5% and affinity was put at a Ki of 1.69 ± 0.05 µM.

Consider `CCCC(=O)N[C@@H]1[C@@H](O)[C@H](O)[C@@H](CO)O[C@H]1SCC(=O)NCCCN1C(=O)c2cccc3c(N4CCCCC4)ccc(c23)C1=O` [Compound 16e], for which, in assay [1], the inhibition at 100 µM came to 24.6 ± 1.5% and the Ki was over 100 µM. Moreover, in assay [2], the inhibition at 100 µM was found to be 78.9 ± 1.9% and the affinity corresponds to a Ki of 12.8 ± 0.27 µM.

Take `CC(C)C(=O)N[C@@H]1[C@@H](O)[C@H](O)[C@@H](CO)O[C@H]1SCC(=O)NCCCN1C(=O)c2cccc3c(N4CCCCC4)ccc(c23)C1=O` [Compound 16f]: the figures for the inhibition at 100 µM in assay [1] and in assay [2] were 21.4 ± 0.5% and 72.2 ± 0.3%, respectively. Besides, the Ki is over 100 µM in assay [1] and 23.6 ± 0.43 µM in assay [2].

In the case of `O=C(CS[C@@H]1O[C@H](CO)[C@@H](O)[C@H](O)[C@H]1NC(=O)C(F)(F)F)NCCCN1C(=O)c2cccc3c(N4CCCCC4)ccc(c23)C1=O` [Compound 16g], the results for the inhibition at 100 µM in assay [1] and in assay [2] were 6.4 ± 0.7% and 82.7 ± 1%, respectively. Moreover, the results for the Ki in assay [1] and in assay [2] were over 100 µM and 6.37 ± 0.09 µM, respectively.
